From patent publication US10899786B2, “Nucleoside phosphate compound and preparation method and use thereof” (SICHUAN KELUN-BIOTECH BIOPHARMACEUTICAL CO., LTD., priority 2016, dated 2021)

Tests used:
[1] = male, ICR, mouse, in vivo, po, 10 mg/kg
CYP1A2 = biological target: T1, CYP1A2 (Homo sapiens, UniProt P05177); test: CYP inhibition test, liver microsome incubation; assay type: in vitro ADME; conditions: liver microsomes, probe phenacetin
T1 construct: from tissue; host or cells: liver microsomes
T1 sequence (P05177 1-516): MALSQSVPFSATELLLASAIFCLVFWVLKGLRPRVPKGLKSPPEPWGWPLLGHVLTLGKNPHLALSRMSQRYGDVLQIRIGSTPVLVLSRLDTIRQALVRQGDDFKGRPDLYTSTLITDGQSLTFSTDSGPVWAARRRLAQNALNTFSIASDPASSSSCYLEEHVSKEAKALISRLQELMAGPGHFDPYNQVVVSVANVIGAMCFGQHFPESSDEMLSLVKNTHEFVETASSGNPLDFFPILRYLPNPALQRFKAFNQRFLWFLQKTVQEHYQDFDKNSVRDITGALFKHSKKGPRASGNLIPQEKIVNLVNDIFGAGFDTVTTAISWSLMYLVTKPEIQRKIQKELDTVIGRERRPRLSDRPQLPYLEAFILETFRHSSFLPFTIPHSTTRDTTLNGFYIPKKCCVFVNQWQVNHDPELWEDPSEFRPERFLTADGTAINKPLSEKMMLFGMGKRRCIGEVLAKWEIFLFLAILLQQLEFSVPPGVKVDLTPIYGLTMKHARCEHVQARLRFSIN
Description: (§1) The compound was dissolved in DMSO to prepare a 10 mM stock solution. The stock solution was further diluted into a series of working solutions of 5, 1.5, 0.5, 0.15, 0.05, 0.015 and 0.005 mM with a mixed solvent of DMSO:methanol=1:1.
(§2) The substrates were each dissolved in DMSO to prepare stock solutions of the corresponding concentrations.
(§3) The positive controls were each dissolved in DMSO to prepare stock solutions of the corresponding concentrations. They were then diluted with methanol to the corresponding concentrations of working solutions.
(§4) The protein concentration of liver microsomes in the reaction system was 0.2 mg/mL, and the coenzyme NADPH was 1.0 mM. The incubation was carried out in a water bath at 37° C. The reaction was quenched and subjected to conventional procedures for LC-MS/MS analysis.

CYP2B6 = biological target: T2, CYP2B6 (Homo sapiens, UniProt P20813); test: CYP inhibition test, liver microsome incubation; assay type: in vitro ADME; conditions: liver microsomes, probe bupropion
T2 construct: The protein concentration of liver microsomes in the reaction system was 0.2 mg/mL; from tissue; host or cells: liver microsomes
T2 sequence (P20813 1-491): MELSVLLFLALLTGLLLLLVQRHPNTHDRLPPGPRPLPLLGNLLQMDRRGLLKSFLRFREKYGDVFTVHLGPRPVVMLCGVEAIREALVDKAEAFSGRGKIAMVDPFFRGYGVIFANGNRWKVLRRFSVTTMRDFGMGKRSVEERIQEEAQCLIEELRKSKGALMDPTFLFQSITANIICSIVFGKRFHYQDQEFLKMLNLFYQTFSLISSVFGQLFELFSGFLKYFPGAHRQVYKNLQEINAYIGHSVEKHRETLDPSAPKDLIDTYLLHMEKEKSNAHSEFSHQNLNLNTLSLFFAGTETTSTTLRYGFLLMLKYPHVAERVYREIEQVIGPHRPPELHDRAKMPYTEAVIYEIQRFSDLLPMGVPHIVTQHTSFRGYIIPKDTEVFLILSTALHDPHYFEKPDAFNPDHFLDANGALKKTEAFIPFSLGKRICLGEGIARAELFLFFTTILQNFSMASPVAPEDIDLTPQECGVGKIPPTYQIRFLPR
Description: as §1, §2, §3, §4

CYP2C19 = biological target: T3, CYP2C19 (Homo sapiens, UniProt P33261); test: CYP inhibition test, liver microsome incubation; assay type: in vitro ADME; conditions: liver microsomes, probe methoin
T3 construct: The protein concentration of liver microsomes in the reaction system was 0.2 mg/mL; from tissue; host or cells: liver microsomes
Description: as §1, §2, §3, §4

CYP2C8 = biological target: T4, CYP2C8 (Homo sapiens, UniProt P10632); test: CYP inhibition test, liver microsome incubation; assay type: in vitro ADME; conditions: liver microsomes, probe amodiaquine
T4 construct: from tissue; host or cells: liver microsomes
T4 sequence (P10632 1-490): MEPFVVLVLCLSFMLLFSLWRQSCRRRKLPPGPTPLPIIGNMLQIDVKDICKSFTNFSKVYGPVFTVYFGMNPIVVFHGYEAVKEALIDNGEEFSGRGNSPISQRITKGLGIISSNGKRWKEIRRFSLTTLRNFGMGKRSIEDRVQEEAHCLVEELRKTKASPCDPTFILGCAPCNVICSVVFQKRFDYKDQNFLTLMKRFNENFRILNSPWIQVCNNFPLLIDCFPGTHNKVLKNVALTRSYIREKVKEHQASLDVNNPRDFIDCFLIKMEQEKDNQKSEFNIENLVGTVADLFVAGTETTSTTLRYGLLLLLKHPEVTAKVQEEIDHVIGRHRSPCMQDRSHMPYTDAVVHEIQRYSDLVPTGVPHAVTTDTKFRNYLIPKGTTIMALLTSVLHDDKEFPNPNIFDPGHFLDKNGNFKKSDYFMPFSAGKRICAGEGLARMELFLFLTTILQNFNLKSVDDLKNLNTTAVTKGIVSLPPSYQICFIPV
Description: as §1, §2, §3, §4

CYP2C9 = biological target: T5, CYP2C9 (Homo sapiens, UniProt P11712); test: CYP inhibition test, liver microsome incubation; assay type: in vitro ADME; conditions: liver microsomes, probe diclofenac
T5 construct: The protein concentration of liver microsomes in the reaction system was 0.2 mg/mL; from tissue; host or cells: liver microsomes
Description: as §1, §2, §3, §4

CYP2D6 = biological target: T6, CYP2D6 (Homo sapiens, UniProt P10635); test: CYP inhibition test, liver microsome incubation; assay type: in vitro ADME; conditions: liver microsomes, probe dextromethorphan
T6 construct: from tissue; host or cells: liver microsomes
Description: as §1, §2, §3, §4

CYP3A4 = biological target: T7, CYP3A4 (Homo sapiens, UniProt P08684); test: CYP inhibition test, liver microsome incubation; assay type: in vitro ADME; conditions: liver microsomes
T7 construct: The protein concentration of liver microsomes in the reaction system was 0.2 mg/mL; from tissue; host or cells: liver microsomes
Description: as §1, §2, §3, §4

CYP450 enzymes = test: CYP inhibition test, overall statement on the eight CYP450 enzymes; assay type: in vitro ADME; conditions: all the eight CYP450 enzymes
Description: as §1, §2, §3, §4
The risk of drug interaction is little, and thus higher safety exists. Other compounds of the invention all have similar safety.

hepatitis B virus (HBV) = test: In vitro pharmacological test: HBV DNA replication in HepG2.2.15 cells; assay type: cell-based
Description: The inhibitory effect of the compounds of the invention on hepatitis B virus (HBV) was tested. The cytotoxicity of the compounds of the invention and the effect thereof on viral (HBV) nucleic acid (DNA) replication levels were tested at cellular level.
HepG2.2.15 cells in logarithmic growth phase were seeded in a 96-well plate at a cell concentration of 40 cells/μL, and were incubate for 3 days at 37° C. in a 5% CO2 incubator. The medium was replaced with new medium (200 μL/well) before adding the compound. The concentration of each compound of the examples in the stock solutions was 200 μM. The highest concentration was 200 μM, and dilution with DMSO lead to a number of different concentrations. 1 μL of the test compound was placed in the corresponding medium well, and the final test concentrations of the compounds were 0.06, 0.24, 0.98, 3.9, 15.6, 62.5, 250, 1000 nM (for calculating the medium effective concentration (EC50)).

T7 sequence (P08684 whole entry): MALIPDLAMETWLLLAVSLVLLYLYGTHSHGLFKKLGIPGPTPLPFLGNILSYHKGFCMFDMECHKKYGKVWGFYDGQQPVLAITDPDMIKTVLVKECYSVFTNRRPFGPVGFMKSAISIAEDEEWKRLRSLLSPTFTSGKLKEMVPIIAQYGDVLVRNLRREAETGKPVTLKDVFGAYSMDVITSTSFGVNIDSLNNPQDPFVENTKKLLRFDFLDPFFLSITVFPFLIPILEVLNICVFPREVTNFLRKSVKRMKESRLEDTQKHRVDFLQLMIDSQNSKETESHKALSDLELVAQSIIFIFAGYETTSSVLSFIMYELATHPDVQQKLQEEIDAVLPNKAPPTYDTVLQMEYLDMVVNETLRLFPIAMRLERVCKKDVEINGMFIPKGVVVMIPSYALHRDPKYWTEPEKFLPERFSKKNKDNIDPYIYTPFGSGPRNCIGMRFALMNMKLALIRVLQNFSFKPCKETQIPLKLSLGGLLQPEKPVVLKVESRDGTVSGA
T5 sequence (P11712 whole entry): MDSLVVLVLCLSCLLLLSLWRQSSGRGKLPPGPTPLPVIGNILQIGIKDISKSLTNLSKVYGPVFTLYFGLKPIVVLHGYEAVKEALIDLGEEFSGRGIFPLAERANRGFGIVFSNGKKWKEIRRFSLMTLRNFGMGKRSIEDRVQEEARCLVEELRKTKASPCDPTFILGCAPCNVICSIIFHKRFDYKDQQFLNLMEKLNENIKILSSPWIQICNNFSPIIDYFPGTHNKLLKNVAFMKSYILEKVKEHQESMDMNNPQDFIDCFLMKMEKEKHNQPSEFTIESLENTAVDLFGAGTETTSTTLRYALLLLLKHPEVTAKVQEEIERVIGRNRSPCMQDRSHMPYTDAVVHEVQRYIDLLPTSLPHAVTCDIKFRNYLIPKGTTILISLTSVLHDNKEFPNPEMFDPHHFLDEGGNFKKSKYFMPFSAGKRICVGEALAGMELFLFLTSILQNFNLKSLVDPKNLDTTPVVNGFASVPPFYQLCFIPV
T6 sequence (P10635 whole entry): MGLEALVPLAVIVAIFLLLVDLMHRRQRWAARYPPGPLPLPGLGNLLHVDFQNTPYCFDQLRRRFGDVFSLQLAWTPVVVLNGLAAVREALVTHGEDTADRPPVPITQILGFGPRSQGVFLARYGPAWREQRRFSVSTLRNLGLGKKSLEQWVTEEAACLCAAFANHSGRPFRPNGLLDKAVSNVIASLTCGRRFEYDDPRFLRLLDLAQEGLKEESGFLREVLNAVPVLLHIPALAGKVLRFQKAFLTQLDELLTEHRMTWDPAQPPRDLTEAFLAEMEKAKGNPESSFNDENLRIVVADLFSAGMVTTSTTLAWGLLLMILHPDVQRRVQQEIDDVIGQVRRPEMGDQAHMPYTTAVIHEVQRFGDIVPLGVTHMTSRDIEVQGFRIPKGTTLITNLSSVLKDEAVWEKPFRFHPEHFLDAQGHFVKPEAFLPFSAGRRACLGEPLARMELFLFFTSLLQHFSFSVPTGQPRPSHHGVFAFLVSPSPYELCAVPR
T3 sequence (P33261 whole entry): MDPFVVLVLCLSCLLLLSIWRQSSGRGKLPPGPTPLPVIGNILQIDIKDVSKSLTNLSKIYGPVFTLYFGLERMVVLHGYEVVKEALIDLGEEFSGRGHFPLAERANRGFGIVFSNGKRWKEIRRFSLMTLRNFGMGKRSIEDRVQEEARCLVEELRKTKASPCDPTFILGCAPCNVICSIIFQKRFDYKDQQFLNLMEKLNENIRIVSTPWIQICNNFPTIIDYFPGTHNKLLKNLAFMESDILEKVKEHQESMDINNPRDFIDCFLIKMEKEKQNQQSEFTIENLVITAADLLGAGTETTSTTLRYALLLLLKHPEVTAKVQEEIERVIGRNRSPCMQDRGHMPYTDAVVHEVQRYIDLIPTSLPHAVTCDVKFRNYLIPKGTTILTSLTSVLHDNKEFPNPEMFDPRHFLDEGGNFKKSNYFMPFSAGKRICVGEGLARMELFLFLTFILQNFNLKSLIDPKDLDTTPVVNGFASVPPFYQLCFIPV

| concentration of Metabolite 1 in liver relative to the plasma concentration [1] | SMILES | IC50 (CYP1A2) | IC50 (CYP2B6) | IC50 (CYP2C19) | IC50 (CYP2C8) | IC50 (CYP2C9) | IC50 (CYP2D6) | IC50 (CYP3A4; probe midazolam) | IC50 (CYP3A4; probe testosterone) | inhibitory effect on the eight CYP450 enzymes (in words) (CYP450 enzymes) | EC50 (hepatitis B virus (HBV)) |
| --- | --- | --- | --- | --- | --- | --- | --- | --- | --- | --- | --- |
| 21 times | C[C@H](Cn1cnc2c(N)ncnc21)OCP(=O)(O)O (single isomer, unassigned) [Metabolite 1 of Compound 22 - Isomer B of Example 16] |  |  |  |  |  |  |  |  |  |  |
|  | C[C@H](Cn1cnc2c(N)ncnc21)OCP(=O)(NCCOCc1ccccc1)Oc1ccccc1 (mixture of isomers) [Ex. 15, ((((R)-1-(6-amino-9H-purin-9-yl)propan-2-yl)oxy)methyl)-phenoxy-N-(2-(benzyloxy)ethyl)phosphoramide] | > 50 µM | > 50 µM | > 50 µM | > 50 µM | > 50 µM | > 50 µM | 11.6 µM | 13.3 µM | no inhibitory effect | 0.0547 ± 0.0264 µM |
